Data published in PubChem BioAssay AID1996.
Values after ≈ are worked out from the molar mass of the structure shown.

Details: buffer; pH 7.4; 200.0 µM

Row | SMILES | solubility kinetic [µg/mL]
1 | CC(=O)N1CCN(C(=O)c2ccc3c(c2)OCO3)CC1 | > 41.4
2 | c1ccc(-c2nc3c4ccccc4ccn3c2CN2CCCCC2)cc1 | 8.1 (≈ 23.7 µM)
3 | CC1CCN(S(=O)(=O)c2ccc3c(c2)n(C)c(=O)n3C)CC1 | > 48.5
4 | CCCCC(CC)CNC(=O)Cn1c(=O)[nH]c2ccsc2c1=O (stereo not given) | 33.5 (≈ 99.3 µM)
5 | CC1(C)CN(C(=S)Nc2ccc(F)cc2F)C1=O | 5.1 (≈ 18.9 µM)
6 | COc1cc(OC)cc(C(=O)NC(=S)N2CCCCCC2)c1 | 43.6 (≈ 135 µM)
7 | CC1(CCCN2C(=O)c3ccccc3C2=O)OCCO1 | > 41.3
8 | COc1ccccc1NC(=O)c1ccc2c(=O)n3c(nc2c1)CCC3 | 13.2 (≈ 39.4 µM)
9 | CC1(NC(=O)Cc2c(F)cccc2Cl)CCS(=O)(=O)C1 (stereo not given) | > 48
10 | O=C(C1CC(=O)N(c2ccc(F)cc2)C1)N1CCCCCC1 (stereo not given) | > 45.7
11 | O=Cc1ccc(OCCOc2ccc([N+](=O)[O-])cc2)cc1 | < 0.6
12 | CCOC(=O)CNC(=O)CSc1nc(-c2cccc(C)c2)ns1 | 40.9 (≈ 116 µM)
13 | CC(C)CC(=O)NC(=S)Nc1ccc(N2CCCC2)c(Cl)c1 | < 0.2
14 | COC(=O)CNC(=O)CSc1ccccn1 | > 36
15 | S=C(c1ccccc1)N1CCSCC1 | > 33.5
16 | COc1ccc(OCC(=O)OC(C)CN2CCCCC2)cc1 (stereo not given) | > 46.1
17 | O=S(=O)(c1cccc2nonc12)N1CCCCC1 | > 40.1
18 | Cc1ccc(S(=O)(=O)NC2CC(C)(C)NC(C)(C)C2)cc1C | > 48.7
19 | COc1ncnc(OC)c1S(=O)(=O)NCc1ccccc1 | > 46.4
20 | O=C(NC1CCN(Cc2ccccc2Cl)CC1)c1ccccc1 | 47.6 (≈ 145 µM)
21 | CC1CCCN(Cc2c(O)ccc3c4c(c(=O)oc23)CCCC4)C1 (stereo not given) | 44 (≈ 134 µM)
22 | Cc1cc(O)c(N=Cc2cc3c(cc2[N+](=O)[O-])OCO3)cc1C | 7 (≈ 22.3 µM)
23 | O=C(CN1CCOCC1)Nc1c(Cl)cc(Cl)cc1Cl | > 48.5
24 | CN(C)S(=O)(=O)c1cc(NC(=O)COC(=O)CC2CC3CCC2C3)ccc1Cl (stereo not given) | 13.7 (≈ 31.9 µM)

Row | SMILES | solubility kinetic [µg/mL]
25 | CCc1sc(NC(=O)CN2CCC(C(N)=O)CC2)nc1-c1ccccc1 | > 55.9
26 | COc1cc2c(cc1OC)C(c1cc([N+](=O)[O-])ccc1O)NCC2 (stereo not given) | > 49.6
27 | COc1cccc(N2CCN(C(=O)CCNS(=O)(=O)c3ccc(F)c(F)c3)CC2)c1 | 56.7 (≈ 129 µM)
28 | CC(=O)N1CCc2cc(S(=O)(=O)NC3CCCCC3)ccc21 | 6.4 (≈ 19.8 µM)
29 | C=CCN1CCN(c2ccncc2S(=O)(=O)N2CCCCC2)CC1 | > 52.6
30 | COc1ccccc1N1CCN(C2CCC(C)CC2)CC1 (stereo not given) | 31.7 (≈ 110 µM)
31 | O=C(CN1CCCC1)Nc1cc(C(F)(F)F)ccc1Cl | 18.1 (≈ 59 µM)
32 | Cc1ccccc1-c1nnc(SCC(=O)NC2CCS(=O)(=O)C2)n1C (stereo not given) | > 57.1
33 | COc1ccc2nc(SC)cc(C)c2c1 | 3.7 (≈ 16.9 µM)
34 | NC(=O)c1ccc(Nc2ccc3c(c2)CCC3)c([N+](=O)[O-])c1 | 2.6 (≈ 8.74 µM)
35 | Cn1cc([N+](=O)[O-])c(C(=O)NCC(=O)O)n1 | > 34.2
36 | O=C(O)CCc1nc2ccccc2c(=O)[nH]1 | > 32.7
37 | Cc1ccc(S(=O)(=O)N2CCN(c3ccccc3)CC2)cc1C | < 0.4
38 | O=C(Nc1ccccc1Cl)C1C(c2ccccc2)C1(Cl)Cl (stereo not given) | < 0.7
39 | Cc1cc(SC2CCOC2=O)nc2ccccc12 (stereo not given) | 35.5 (≈ 137 µM)
40 | CCCNC(=O)Cn1sc2nc(C)cc(C)c2c1=O | > 41.9
41 | COc1ccc(CNC(=O)C2CCCN2C)cc1OC (stereo not given) | 37 (≈ 133 µM)
42 | COc1ccc(C(CNC(=O)c2cc3c(s2)CCCC3)N2CCOCC2)cc1 (stereo not given) | 36.4 (≈ 90.9 µM)
43 | CCOC(=O)CN1C(=N)N(c2nc(NC(C)C)nc(OC)n2)CC1=O | > 52.7
44 | O=C(CCl)N(CCCNC(=O)C(F)(F)F)c1ccc([N+](=O)[O-])cc1 | > 55.2
45 | O=C1C/C(=C\c2c(F)cccc2Cl)N2CCC1CC2 | 39.7 (≈ 142 µM)
46 | Cl.c1coc(C2=NCCc3ccccc32)c1 | 27.9
47 | O=C(CCc1ccccc1)Nc1sc2c(c1C(=O)O)CCCC2 | > 49.4
48 | COc1ccc(NC(=O)N2CCc3ccccc3C2)cc1OC | > 46.9

Row | SMILES | solubility kinetic [µg/mL]
49 | OCCN1CCN(CC(O)C(F)(F)F)CC1 (stereo not given) | > 36.3
50 | CC(=O)Nc1ccc(S(=O)(=O)Nc2ccc(N3CCCCC3)cc2)cc1 | 51.9 (≈ 139 µM)
51 | CN(C(=O)CSc1nc2ccc(Cl)cc2[nH]1)C1CCS(=O)(=O)C1 (stereo not given) | > 56.1
52 | COc1cc(NC(=O)C[n+]2ccc(C(=O)c3ccccc3)cc2)cc(OC)c1.[Cl-] | > 61.9
53 | CC(C)(C)OC(=O)NCCCCCO | > 30.5
54 | COc1ccc(/C=C(\C#N)C(=O)N2COCC2(C)C)cc1 | > 42.9
55 | CN1CCN(Cc2nnc(-c3ccccc3)o2)CC1 | > 38.7
56 | Cc1ccc(N2N=C(C(=O)O)CCC2=O)cc1Cl | > 40
57 | COc1cccc(NC(=O)CN2C(=O)NC(C)(C3CC3)C2=O)c1 (stereo not given) | > 47.6
58 | COc1cccc(/C=C/c2ccc3cccc(O)c3n2)c1 | 0.7 (≈ 2.52 µM)
59 | CC(=O)C(CC(=O)N1CCCC1)C(=O)Nc1ccc(Cl)cc1 (stereo not given) | > 48.4
60 | O=C1Nc2ccccc2/C1=C/c1ccnc2ccccc12 | 3.5 (≈ 12.9 µM)
61 | O=C(/C=C/c1ccc(S(=O)(=O)N2CCOCC2)cc1)NC(CO)C(O)c1ccc([N+](=O)[O-])cc1 (stereo not given) | > 73.7
62 | Cc1cccc(Nc2nc(Cl)ncc2F)c1C | 5.3 (≈ 21.1 µM)
63 | CCCCc1noc(-c2c(-c3ccccc3Cl)noc2C)n1 | 0.6 (≈ 1.89 µM)
64 | COc1cc2ccccc2cc1C(=O)N1CCCC(C(F)(F)F)C1 (stereo not given) | > 50.6
65 | O=C(Oc1ccc(C(=S)N2CCOCC2)cc1)c1cccc(Cl)c1 | < 0.8
66 | Cc1nc(C(=O)N2CCCC(C(=O)c3ccc(Cl)cc3)C2)cs1 (stereo not given) | > 52.3
67 | Cc1cc(N2CCNCC2)nc2ccccc12 | 33.3 (≈ 146 µM)
68 | COc1ccc(C(=O)N2CC(c3ccccc3)CC2=O)cc1 (stereo not given) | 3.4 (≈ 11.5 µM)
69 | COc1cc(C2NC(=O)NC3=C2C(=O)OC3)cc(OC)c1OC (stereo not given) | > 48
70 | O=C1NC(c2ccc(Cl)cc2)Oc2ccccc21 (stereo not given) | 1.7 (≈ 6.55 µM)

Other lines, results leading:

Row | solubility kinetic [µg/mL] | SMILES
71 | 1.4 (≈ 4.63 µM) | CCOc1ccc(NC(=O)Nc2ccccc2SC)cc1
72 | 16.6 (≈ 51.5 µM) | Cc1ccc(-n2cnc(N)c2C(=O)c2cccc([N+](=O)[O-])c2)cc1
73 | < 0.7 | Cc1cccc(C(=O)O/N=C/c2ccc(Br)cc2)c1
74 | 33.7 (≈ 136 µM) | CC(=O)N1CCN=C1SCc1cccc(C)c1
75 | 3.7 (≈ 10.9 µM) | Cc1c(C(=O)c2ccccc2)c2ccccn2c1CCc1ccccn1
76 | 20.7 (≈ 94 µM) | Cc1cc(NC(=O)c2ccc(F)cc2)no1
77 | 18.5 (≈ 50.3 µM) | CCCOP(=O)(c1ccc(N(C)C)cc1)C(O)c1ccc(Cl)cc1 (stereo not given)
78 | 19.7 (≈ 71.6 µM) | Cc1cc(NC(=O)COc2ccccc2C(N)=O)no1
79 | 38.3 (≈ 118 µM) | NS(=O)(=O)c1ccc(CNC(=O)c2cccnc2Cl)cc1
80 | > 47.6 | O=C(Nc1ccccc1C(F)(F)F)c1ccc2nccnc2c1
81 | 43.6 (≈ 147 µM) | COC(=O)CCCN1C(=O)c2cccc3cccc(c23)C1=O
82 | 3.4 (≈ 9.53 µM) | O=C(CNC(=O)c1ccc(Cl)cc1)Nc1ccccc1C(F)(F)F
83 | > 52.6 | CCCCNC(=O)Cn1nc(Cc2ccncc2)c2ccccc2c1=O
84 | 2.7 (≈ 7.79 µM) | CCN(c1cccc(C)c1)S(=O)(=O)c1ccc2c(c1)oc(=O)n2C
85 | 9.9 (≈ 36.5 µM) | O=C(Nc1cccc(C(F)(F)F)c1)Nc1ccon1
86 | > 43.3 | CCC(C)NC(=O)C1CCC(=O)N1CCc1ccccc1 (stereo not given)
87 | > 48.4 | Cc1cc(C(=O)NCCc2ccc(S(N)(=O)=O)cc2)c(C)o1
88 | 4.7 (≈ 15.8 µM) | Cc1csc(NC(=O)c2cncc(Br)c2)n1
89 | > 45.4 | C=CCNC(=O)c1ccccc1SCc1c(C)noc1C
90 | 3.6 (≈ 13.5 µM) | Cc1ccnc(NC(=O)c2oc3ccccc3c2C)c1
91 | > 36.5 | Cc1ccccc1C(=O)NCCCn1ccnc1
92 | > 46.1 | O=C(COC(=O)c1cnccn1)Nc1cccc2ccccc12
93 | > 29.7 | CC(Nc1ccccc1)c1ccncc1 (stereo not given)
94 | 29.4 (≈ 97.6 µM) | Cc1ccc(SCC(=O)O/N=C(\N)c2ccncc2)cc1
95 | 1 (≈ 3.71 µM) | NC(=O)c1sc2nc(-c3ccccc3)ccc2c1N

Row | solubility kinetic [µg/mL] | SMILES
96 | > 47.9 | CCn1c(SCC(=O)NC(C)(C)C)nnc1-c1ccncc1
97 | 44.2 | CCN(CC)c1ccc(CNCc2cccs2)cc1.Cl
98 | 4.2 (≈ 12.2 µM) | CN(C)c1cccc(C(=O)N(Cc2ccccc2)Cc2ccccc2)c1
99 | > 54.2 | COc1ccc([N+](=O)[O-])cc1NC(=O)CCSCCc1ccccn1
100 | > 42.7 | O=C(c1ccccc1)c1nccn1-c1ccc(Cl)nn1
101 | 35 (≈ 117 µM) | COc1ccc(NC(=O)Cn2c(=O)oc3ccccc32)cc1
102 | < 0.7 | COc1ccc(NC(=O)COc2ccc3oc(=O)cc(C)c3c2)cc1
103 | > 51.2 | Cc1ccc(OCC(=O)NCCCNC(=O)c2ccc(C)nc2)cc1
104 | > 36.3 | COc1ccccc1CNC(=O)c1ccncc1
105 | 29.1 (≈ 83.8 µM) | COc1cccc(NC(=O)c2ccccc2NC(=O)c2ccncc2)c1
106 | 4 (≈ 14 µM) | N#Cc1ccccc1NC(=O)COC(=O)c1cccs1
107 | > 45.4 | CSc1cccc(NC(=O)COC(=O)c2ccccn2)c1
108 | > 48.8 | CCOc1ccc(N2CC(C(=O)Nc3ccncc3)CC2=O)cc1 (stereo not given)
109 | 2.7 | Cl.Clc1ccc(NCc2ccsc2)cc1
110 | 35.3 (≈ 75 µM) | N#Cc1ccc(CN2CCN(C(=O)CNS(=O)(=O)c3ccc4c(c3)OCCCO4)CC2)cc1
111 | > 47 | CN(C)S(=O)(=O)c1ccc(C(=O)OC2CCOC2=O)cc1 (stereo not given)
112 | > 43.3 | CC(C)C(C(=O)Nc1ccncc1)c1ccc(Cl)cc1 (stereo not given)
113 | > 51.2 | O=C(CSc1ncccc1C(=O)O)c1cccc(C(F)(F)F)c1
114 | 30.2 (≈ 62.2 µM) | NS(=O)(=O)c1ccc(CCNC(=O)COC(=O)/C=C/c2cc(Br)ccc2F)cc1
115 | 47.2 (≈ 117 µM) | CN(c1ccccc1)S(=O)(=O)c1ccc(Cl)c(C(=O)NCc2ccco2)c1
116 | 1.7 (≈ 5.38 µM) | O=C(COc1ccccc1[N+](=O)[O-])Nc1ccc2c(c1)OCO2
117 | 47.5 (≈ 140 µM) | CCCC(=O)Nc1ccccc1NC(=O)c1ccc(OC(C)=O)cc1
118 | > 46.4 | CCN(Cc1ccncc1)C(=O)c1ccc(Br)o1
119 | < 0.3 | COc1ccc(NC(=O)c2cc(-c3cccc(OC)c3)on2)cc1
120 | 5.2 (≈ 18.2 µM) | COc1cccc(Nc2ccc([N+](=O)[O-])c3nonc23)c1
